The data set is described as follows: metabolic stability in rat liver microsomes (RLM). In kind it is in vitro ADME. As for the experimental part:
Twelve esters were prepared (see the Experimental Section for their synthesis and the Supporting Information for chromatographic methods) and evaluated in terms of metabolic stability. For this task, a combined approach based on microsomal and plasmatic stability assays was exploited considering the relevance of the plasmatic and hepatic tissues in esterase activity. Microsomal stability of the selected esters was evaluated by monitoring the disappearance of the substrate incubated in rat liver microsomes (RLM) at 50 μM concentration, in the presence of NADPH. In Table 4, the percentage of the remaining substrate, after incubation (t=60 min), with respect to the initial amount is reported. Overall, the compounds underwent a relevant metabolic transformation, and the substrate depletion ranged from 0 (for 76) to 100 % (for 70). This is mainly due to hydrolysis of the ester function, whereas the metabolites arising from the oxidation catalyzed by the NADPH‐dependent monooxygenase system were negligible from a quantitative point of view. Indeed, the main metabolite formed during the incubation of the esters was corresponding carboxyl derivative 37. […] Moreover, whereas CH2‐pyridin‐4‐yl ester 70 was completely metabolized, corresponding benzyl derivative 65 and piperonyl derivative 72 were more hydrolytically stable, and their residual substrates were 53 and 83 %, respectively. The hydrolytic stability of the selected esters was also evaluated by monitoring the depletion of the substrate incubated at a 50 μM concentration in mouse plasma over a period of 30 min. As expected, the plasmatic metabolic fate of the esters was characterized by the formation of 37 as the only metabolite (see Figure S4). The rate constant k [min^−1], derived for the substrate peak area versus time curve (single‐exponential decay equation—GraphPad Prism software, Inc., San Diego, CA (USA); see Figure S5) was used to calculate the in vitro half‐life t 1/2 [min], and the values are reported in Table 4.
Metabolic stability of PI3K inhibitors in RLM fraction
The standard incubation mixture (500 µL final volume), in 1.5 mL Eppendorf tubes, was carried out in a 50 mM TRIS-HCl buffer (pH 7.4) containing 3.3 mM MgCl2, 1.3 mM NADPNa2, 3.3 mM glucose 6-phosphate, 0.4 Units/mL glucose 6-phosphate dehydrogenase (NADPH regenerating system), acetonitrile as cosolvent (1% of final volume) and 50 µM of substrate. After pre-equilibration of the mixture, an appropriate volume of rat microsomal suspension was added to give a final protein concentration of 1 mg/mL. The mixture was shaken for 1 hour at 37°C and the reaction was quenched by diluting the samples with 500 µL of ice-cold acetonitrile. The samples were then centrifuged at 13,000 rpm for 10 min, and the supernatant was directly injected onto the HPLC column for analysis. Control incubations were performed without microsomes. […]
A Shimadzu HPLC system (Shimadzu, Kyoto, Japan), consisting of two LC-10AD Vp module pumps, an SLC-10A Vp system controller, an SIL-10AD Vp autosampler, and a DGU-14-A on-line degasser was used for the analysis. All the chromatographic separations were performed on a Phenomenex Luna C18 5µm (150 x 4.6 mm i.d.) (Phenomenex srl, Castel Bolognese, Italy) as a stationary phase protected by a Luna C18 SecurityGuard (Phenomenex srl). The SPD-M10Avp photodiode array detector was used to detect the analyte at 254 nm. LC Solution 1.24 software was used to process the chromatograms. Aliquots (20 µL) of supernatants obtained from incubations were injected onto the HPLC system and eluted with a mobile phase (flow rate: 1 mL/min) consisting of solvent A- 0.5% aqueous formic acid solution and solvent B- acetonitrile/methanol 80:20.
The eluants were filtered through a 0.45-µm pore size polyvinylidene difluoride membrane […]
The following gradients programs were used: […]

SMILES strings stand for the structures.

Here are results for 1 compound from publication PMC5697638, “Identification of a Potent Phosphoinositide 3‐Kinase Pan Inhibitor Displaying a Strategic Carboxylic Acid Group and Development of Its Prodrugs” (Chemmedchem, 2017).

Turning to `COC(=O)c1cccc(Cn2cc(-c3cccc4c(=O)cc(N5CCOCC5)[nH]c34)nn2)c1` [Compound 64, Methyl 3‐{[4‐(2‐morpholino‐4‐oxo‐1,4‐dihydroquinolin‐8‐yl)‐1H‐1,2,3‐triazol‐1‐yl]methyl}benzoate], the “Residual microsomal substrate (t=60 min)” value (RLM, 50 μM substrate, with NADPH, LC–UV) is 20%. Moreover, the “% residual substrate, NADPH (without RLM)” value (control incubation without microsomes, 50 μM, 60 min) was found to be 100%.
